From patent publication US20080009418A1, “Selective Inhibitors” (Alchemia LTD., priority 2004, published 2008)

What was measured:
Human κ-Opioid (KOP) = target: T1, Human κ-Opioid (KOP) (Homo sapiens, UniProt P41145); assay: Radioligand binding, human κ-opioid (KOP) membranes, filtration, [3H]-Diprenorphine; settings: compound at 10 μM, [3H]-Diprenorphine; for A2: inhibition of radioligand binding: filtration
T1 construct: purchased Perkin Elmer Biosignal
Method in brief: (§1)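 Percent inhibition of radioligand binding measured on recombinant human membranes: NK1 with [125I]-Substance P, KOP with [3H]-Diprenorphine. Incubation 1 h at room temperature, then harvest onto 0.3% PEI-soaked filters, cold Tris-HCl pH 7.4 washes and scintillation counting; non-specific binding from reference ligand wells.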

Human μ-opioid (MOP) = target: T2, Human μ-opioid (MOP) (Homo sapiens, UniProt P35372); assay: Radioligand binding, human μ-opioid (MOP) membranes, FlashPlate, [3H]-Naloxone; settings: compound at 10 μM, [3H]-Naloxone; for A7: inhibition of radioligand binding: FlashPlate
T2 construct: purchased Perkin Elmer Biosignal
T2 sequence (P35372 whole entry): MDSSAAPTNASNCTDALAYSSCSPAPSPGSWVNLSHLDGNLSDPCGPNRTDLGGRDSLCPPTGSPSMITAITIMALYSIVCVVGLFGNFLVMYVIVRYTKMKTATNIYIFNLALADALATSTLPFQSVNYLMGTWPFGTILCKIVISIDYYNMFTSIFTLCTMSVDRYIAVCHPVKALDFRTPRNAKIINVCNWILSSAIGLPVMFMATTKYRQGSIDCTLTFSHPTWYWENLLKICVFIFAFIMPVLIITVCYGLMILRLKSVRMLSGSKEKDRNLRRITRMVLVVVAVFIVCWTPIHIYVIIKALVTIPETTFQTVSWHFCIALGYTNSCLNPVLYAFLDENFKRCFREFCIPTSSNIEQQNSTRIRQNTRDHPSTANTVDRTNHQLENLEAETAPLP
Method in brief: (§2)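 Cloned human receptor membranes were coated onto FlashPlate wells and incubated with radioligand and compound (added from a 0.5 mM DMSO daughter plate) for 1 hour at room temperature in the dark. Scintillation counting gave percent inhibition, with DMSO defining total and reference ligand defining non-specific binding.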

Human neurokinin (NK1) = target: T3, Human neurokinin (NK1) (Homo sapiens, UniProt P25103); assay: Radioligand binding, human neurokinin NK1 membranes, filtration, [125I]-Substance P; settings: compound at 10 μM, [125I]-Substance P; for A8: inhibition of radioligand binding: filtration
T3 construct: purchased Perkin Elmer Biosignal
T3 sequence (P25103 whole entry): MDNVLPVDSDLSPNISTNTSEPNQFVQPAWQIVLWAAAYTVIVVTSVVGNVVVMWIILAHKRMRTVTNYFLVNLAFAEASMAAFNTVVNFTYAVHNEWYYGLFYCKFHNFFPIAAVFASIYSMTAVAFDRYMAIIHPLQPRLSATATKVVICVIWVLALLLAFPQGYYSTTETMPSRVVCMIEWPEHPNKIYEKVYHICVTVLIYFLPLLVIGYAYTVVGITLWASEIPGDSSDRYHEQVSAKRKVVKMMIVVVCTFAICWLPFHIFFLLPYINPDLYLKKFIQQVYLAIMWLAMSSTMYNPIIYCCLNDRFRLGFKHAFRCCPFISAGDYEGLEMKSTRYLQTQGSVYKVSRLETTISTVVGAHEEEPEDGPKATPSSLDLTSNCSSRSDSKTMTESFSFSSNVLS
Method in brief: as §1

[1] = target: T4, Human neuropeptide Y (NPY-Y1) (Homo sapiens, UniProt P25929); assay: Radioligand binding, human neuropeptide Y NPY-Y1 membranes, FlashPlate, [125I]-PYY; settings: compound at 10 μM, [125I]-PYY; for A9: inhibition of radioligand binding: FlashPlate
T4 construct: purchased Perkin Elmer Biosignal
T4 sequence (P25929 1-384): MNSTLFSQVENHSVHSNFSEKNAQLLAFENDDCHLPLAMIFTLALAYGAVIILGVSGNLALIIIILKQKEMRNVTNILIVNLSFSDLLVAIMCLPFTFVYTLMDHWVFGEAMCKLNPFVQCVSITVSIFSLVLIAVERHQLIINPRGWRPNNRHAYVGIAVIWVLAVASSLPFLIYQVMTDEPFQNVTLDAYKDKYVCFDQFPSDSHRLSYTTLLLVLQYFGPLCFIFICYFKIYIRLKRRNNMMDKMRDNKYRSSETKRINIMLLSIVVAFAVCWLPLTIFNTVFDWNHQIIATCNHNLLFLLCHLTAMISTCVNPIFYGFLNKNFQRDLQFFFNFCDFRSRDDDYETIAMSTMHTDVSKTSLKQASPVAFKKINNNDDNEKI
Method in brief: as §2

Mouse urotensin (mUR2) = target: T5, Mouse urotensin (mUR2) (Mus musculus, UniProt Q8VIH9); assay: Radioligand binding, mouse urotensin mUR2 membranes, FlashPlate, [125I]-Urotensin II; settings: compound at 10 μM, [125I]-Urotensin II; for A11: inhibition of radioligand binding: FlashPlate
T5 construct: purchased Perkin Elmer Biosignal
T5 sequence (Q8VIH9 1-385): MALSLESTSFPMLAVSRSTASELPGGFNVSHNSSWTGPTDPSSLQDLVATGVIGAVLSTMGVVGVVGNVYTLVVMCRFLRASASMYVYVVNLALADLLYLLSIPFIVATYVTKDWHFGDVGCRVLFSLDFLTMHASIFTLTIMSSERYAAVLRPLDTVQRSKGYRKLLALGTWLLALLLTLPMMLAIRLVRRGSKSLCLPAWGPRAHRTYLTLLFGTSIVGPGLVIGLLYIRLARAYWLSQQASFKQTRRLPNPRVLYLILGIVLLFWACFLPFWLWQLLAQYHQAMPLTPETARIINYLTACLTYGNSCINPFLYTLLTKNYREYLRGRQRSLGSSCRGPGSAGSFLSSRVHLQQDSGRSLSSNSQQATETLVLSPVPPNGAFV
Method in brief: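 Cloned mouse urotensin (mUR2) receptor membranes from Perkin Elmer Biosignal were immobilized in FlashPlate microplates using a proprietary coating. Each well got 19.5 μl buffer, then 0.5 μl of DMSO, reference ligand, or compound. Adding 5 μl of [125I]-Urotensin II, diluted to 5× final concentration in binding buffer, started binding. Plates were sealed with TopSeal-A and incubated 1 hour at room temperature in the dark. Wells were counted for 30 seconds each on a TopCount after a 60-second delay, and percentage inhibition was calculated.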

Human δ-opioid (DOP) = target: T6, Human δ-opioid (DOP) (Homo sapiens, UniProt P41143); assay: Radioligand binding, human δ-opioid (DOP) membranes, FlashPlate, [3H]-Bremazocine; settings: compound at 10 μM, [3H]-Bremazocine; for A1: inhibition of radioligand binding: FlashPlate
T6 construct: purchased Perkin Elmer Biosignal
T6 sequence (P41143 whole entry): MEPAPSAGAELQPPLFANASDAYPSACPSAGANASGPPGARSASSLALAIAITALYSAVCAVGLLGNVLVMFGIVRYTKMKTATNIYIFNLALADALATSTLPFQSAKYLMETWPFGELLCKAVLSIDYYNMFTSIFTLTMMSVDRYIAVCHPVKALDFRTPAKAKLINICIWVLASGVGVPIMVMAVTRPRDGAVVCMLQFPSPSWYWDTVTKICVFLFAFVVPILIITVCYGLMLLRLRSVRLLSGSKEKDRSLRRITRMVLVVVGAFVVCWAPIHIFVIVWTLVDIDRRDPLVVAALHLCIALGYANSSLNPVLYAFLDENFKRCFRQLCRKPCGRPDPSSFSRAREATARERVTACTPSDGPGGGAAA
Method in brief: as §2

[2] = target: T7, Human melanin-concentrating hormone (MCH1) (Homo sapiens, UniProt Q99705); assay: Radioligand binding, human melanin-concentrating hormone MCH1 membranes, FlashPlate, [125I]-S36057; settings: compound at 10 μM; for A6: inhibition of radioligand binding: [125I]-S36057, FlashPlate
T7 construct: purchased Perkin Elmer Biosignal
T7 sequence (Q99705 whole entry): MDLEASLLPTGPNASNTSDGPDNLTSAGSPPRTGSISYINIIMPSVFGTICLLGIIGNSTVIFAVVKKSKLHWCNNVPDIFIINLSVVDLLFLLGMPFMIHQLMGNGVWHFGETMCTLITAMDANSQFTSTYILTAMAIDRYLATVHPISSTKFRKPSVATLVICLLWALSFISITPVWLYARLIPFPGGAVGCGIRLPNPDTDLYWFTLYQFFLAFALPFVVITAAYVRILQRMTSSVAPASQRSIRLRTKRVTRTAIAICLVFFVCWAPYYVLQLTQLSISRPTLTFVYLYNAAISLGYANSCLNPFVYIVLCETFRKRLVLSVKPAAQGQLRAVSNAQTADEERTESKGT
Method in brief: as §2

Human opioid (ORL1) = target: T8, Human opioid (ORL1) (Homo sapiens, UniProt P41146); assay: Radioligand binding, human opioid ORL1 membranes, FlashPlate, [125I]-Nociceptin; settings: compound at 10 μM, [125I]-Nociceptin; for A10: inhibition of radioligand binding: FlashPlate
T8 construct: purchased Perkin Elmer Biosignal
T8 sequence (P41146 whole entry): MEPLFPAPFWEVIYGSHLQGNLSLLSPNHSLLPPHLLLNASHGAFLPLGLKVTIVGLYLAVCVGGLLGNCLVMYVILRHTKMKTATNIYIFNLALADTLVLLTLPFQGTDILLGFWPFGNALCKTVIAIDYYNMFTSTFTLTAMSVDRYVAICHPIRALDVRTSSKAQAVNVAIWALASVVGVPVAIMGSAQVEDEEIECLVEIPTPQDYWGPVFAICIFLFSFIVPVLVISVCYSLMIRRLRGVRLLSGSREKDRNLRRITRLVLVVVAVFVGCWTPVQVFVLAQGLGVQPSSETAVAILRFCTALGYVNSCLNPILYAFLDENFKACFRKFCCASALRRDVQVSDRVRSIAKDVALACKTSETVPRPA
Method in brief: as §2

Human Melanocortin (MC4) = target: T9, Human Melanocortin (MC4) (Homo sapiens, UniProt P32245); assay: Radioligand binding, human melanocortin MC4 membranes, FlashPlate, [125I]-NDP-αMSH; settings: compound at 10 μM, [125I]-NDP-αMSH; for A4: inhibition of radioligand binding: FlashPlate
T9 construct: purchased Perkin Elmer Biosignal
T9 sequence (P32245 whole entry): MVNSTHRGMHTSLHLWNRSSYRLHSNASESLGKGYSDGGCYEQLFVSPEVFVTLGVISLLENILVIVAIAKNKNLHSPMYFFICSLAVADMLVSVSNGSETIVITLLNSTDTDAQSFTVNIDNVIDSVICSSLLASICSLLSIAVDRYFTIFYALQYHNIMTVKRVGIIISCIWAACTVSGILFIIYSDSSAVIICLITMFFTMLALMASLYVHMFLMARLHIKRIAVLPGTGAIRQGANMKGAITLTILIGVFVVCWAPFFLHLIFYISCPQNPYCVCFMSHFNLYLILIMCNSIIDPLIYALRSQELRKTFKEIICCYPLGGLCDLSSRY
Method in brief: as §2

Human melanocortin (MC5) = target: T10, Human melanocortin (MC5) (Homo sapiens, UniProt P33032); assay: Radioligand binding, human melanocortin MC5 membranes, FlashPlate, [125I]-NDP-αMSH; settings: compound at 10 μM, [125I]-NDP-αMSH; for A5: inhibition of radioligand binding: FlashPlate
T10 construct: purchased Perkin Elmer Biosignal
T10 sequence (P33032 whole entry): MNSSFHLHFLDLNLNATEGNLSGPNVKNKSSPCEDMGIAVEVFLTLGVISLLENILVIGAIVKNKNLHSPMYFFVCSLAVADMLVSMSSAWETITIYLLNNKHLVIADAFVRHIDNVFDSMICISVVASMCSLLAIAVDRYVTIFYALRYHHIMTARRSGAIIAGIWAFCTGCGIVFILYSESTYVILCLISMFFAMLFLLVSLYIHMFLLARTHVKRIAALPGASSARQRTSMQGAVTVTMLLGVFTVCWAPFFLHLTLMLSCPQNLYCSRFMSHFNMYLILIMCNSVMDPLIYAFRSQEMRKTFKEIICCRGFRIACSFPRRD
Method in brief: as §2

Human Melanocortin (MC3) = target: T11, Human Melanocortin (MC3) (Homo sapiens, UniProt P41968); assay: Radioligand binding, human melanocortin MC3 membranes, FlashPlate, [125I]-NDP-αMSH; settings: compound at 10 μM, [125I]-NDP-αMSH; for A3: inhibition of radioligand binding: FlashPlate
T11 construct: purchased Perkin Elmer Biosignal
T11 sequence (P41968 whole entry): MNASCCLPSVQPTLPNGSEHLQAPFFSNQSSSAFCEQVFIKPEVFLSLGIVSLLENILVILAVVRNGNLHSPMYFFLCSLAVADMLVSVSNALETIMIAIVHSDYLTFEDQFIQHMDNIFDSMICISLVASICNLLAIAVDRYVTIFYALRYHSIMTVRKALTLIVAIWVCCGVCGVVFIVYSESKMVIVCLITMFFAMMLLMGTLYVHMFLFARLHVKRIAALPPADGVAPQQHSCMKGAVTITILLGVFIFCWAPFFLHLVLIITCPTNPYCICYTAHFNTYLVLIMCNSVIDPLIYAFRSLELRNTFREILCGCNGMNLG
Method in brief: as §2

T1 sequence (P41145 whole entry): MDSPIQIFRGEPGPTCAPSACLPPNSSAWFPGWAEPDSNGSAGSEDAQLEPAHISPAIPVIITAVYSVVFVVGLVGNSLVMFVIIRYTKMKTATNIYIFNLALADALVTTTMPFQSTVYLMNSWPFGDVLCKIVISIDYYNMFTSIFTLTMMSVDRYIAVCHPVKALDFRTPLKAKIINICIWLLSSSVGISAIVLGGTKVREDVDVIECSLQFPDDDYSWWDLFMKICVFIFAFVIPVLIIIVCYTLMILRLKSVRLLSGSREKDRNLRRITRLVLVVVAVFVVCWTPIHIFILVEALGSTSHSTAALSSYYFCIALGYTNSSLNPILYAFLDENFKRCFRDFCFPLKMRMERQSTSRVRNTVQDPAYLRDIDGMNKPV

Row | SMILES | A2: inhibition of radioligand binding (Human κ-Opioid (KOP)) | A7: inhibition of radioligand binding (Human μ-opioid (MOP)) | A8: inhibition of radioligand binding (Human neurokinin (NK1)) | A9: inhibition of radioligand binding [1] | A11: inhibition of radioligand binding (Mouse urotensin (mUR2)) | A1: inhibition of radioligand binding (Human δ-opioid (DOP)) | A6: inhibition of radioligand binding [2] | A10: inhibition of radioligand binding (Human opioid (ORL1)) | A4: inhibition of radioligand binding (Human Melanocortin (MC4)) | A2: inhibition of radioligand binding, human κ-opioid (KOP) (Human κ-Opioid (KOP)) | A7: inhibition of radioligand binding, human μ-opioid (MOP) (Human μ-opioid (MOP)) | A8: inhibition of radioligand binding, human neurokinin (NK1) (Human neurokinin (NK1)) | A9: inhibition of radioligand binding, human neuropeptide Y (NPY-Y1) [1] | A11: inhibition of radioligand binding, mouse urotensin (mUR2) (Mouse urotensin (mUR2)) | A1: inhibition of radioligand binding, human δ-opioid (DOP) (Human δ-opioid (DOP)) | A6: inhibition of radioligand binding, human melanin-concentrating hormone (MCH1) ([2]; [125I]-S36057) | A10: inhibition of radioligand binding, human opioid (ORL1) (Human opioid (ORL1)) | A4: inhibition of radioligand binding, human melanocortin (MC4) (Human Melanocortin (MC4)) | A5: inhibition of radioligand binding, human melanocortin (MC5) (Human melanocortin (MC5)) | A3: inhibition of radioligand binding, human melanocortin (MC3) (Human Melanocortin (MC3)) | also measured
1 | COCC1OC(OCc2ccc3ccccc3c2)C(NC(=O)CCCNC(=N)N)C(OCc2ccc3ccccc3c2)C1O (stereo not drawn) [compound 250] | − (“−” indicates less than 50% inhibition at 10 μM) | − (“−” indicates less than 50% inhibition at 10 μM) | + (“+” indicates greater than 50% inhibition at 10 μM) | − (“−” indicates less than 50% inhibition at 10 μM) | − (“−” indicates less than 50% inhibition at 10 μM) | − (“−” indicates less than 50% inhibition at 10 μM) | + (“+” indicates greater than 50% inhibition at 10 μM) | + (“+” indicates greater than 50% inhibition at 10 μM) | + (“+” indicates greater than 50% inhibition at 10 μM) | – | – | – | – | – | – | – | – | – | – | – | A5: inhibition of radioligand binding (Human melanocortin (MC5)): + (“+” indicates greater than 50% inhibition at 10 μM); A3: inhibition of radioligand binding (Human Melanocortin (MC3)): − (“−” indicates less than 50% inhibition at 10 μM)
2 | CO[C@H]1[C@H](O)[C@@H](COCc2ccc3ccccc3c2)OC(OCc2ccc(Cl)cc2)[C@@H]1NC(=O)C(N)CN (stereo partly drawn) [compound 351] | – | – | – | – | – | – | – | – | – | − (“−” indicates less than 50% inhibition at 10 μM) | − (“−” indicates less than 50% inhibition at 10 μM) | + (“+” indicates greater than 50% inhibition at 10 μM) | − (“−” indicates less than 50% inhibition at 10 μM) | − (“−” indicates less than 50% inhibition at 10 μM) | − (“−” indicates less than 50% inhibition at 10 μM) | − (“−” indicates less than 50% inhibition at 10 μM) | − (“−” indicates less than 50% inhibition at 10 μM) | − (“−” indicates less than 50% inhibition at 10 μM) | − (“−” indicates less than 50% inhibition at 10 μM) | − (“−” indicates less than 50% inhibition at 10 μM) | –
3 | NCCCC(=O)NC1C(OCc2ccccc2)OC(COCc2ccc3ccccc3c2)C(O)C1OCc1ccc(Cl)cc1 (stereo not drawn) [compound 372] | – | – | – | – | – | – | – | – | – | − (“−” indicates less than 50% inhibition at 10 μM) | − (“−” indicates less than 50% inhibition at 10 μM) | + (“+” indicates greater than 50% inhibition at 10 μM) | − (“−” indicates less than 50% inhibition at 10 μM) | − (“−” indicates less than 50% inhibition at 10 μM) | − (“−” indicates less than 50% inhibition at 10 μM) | − (“−” indicates less than 50% inhibition at 10 μM) | − (“−” indicates less than 50% inhibition at 10 μM) | + (“+” indicates greater than 50% inhibition at 10 μM) | + (“+” indicates greater than 50% inhibition at 10 μM) | − (“−” indicates less than 50% inhibition at 10 μM) | –
4 | COC[C@H]1OC(OCc2ccc(Cl)cc2)[C@H](NC(=O)CCCN)[C@@H](OCc2ccc3ccccc3c2)[C@@H]1O (single isomer, unassigned) [compound 343] | – | – | – | – | – | – | – | – | – | − (“−” indicates less than 50% inhibition at 10 μM) | − (“−” indicates less than 50% inhibition at 10 μM) | + (“+” indicates greater than 50% inhibition at 10 μM) | − (“−” indicates less than 50% inhibition at 10 μM) | − (“−” indicates less than 50% inhibition at 10 μM) | − (“−” indicates less than 50% inhibition at 10 μM) | − (“−” indicates less than 50% inhibition at 10 μM) | − (“−” indicates less than 50% inhibition at 10 μM) | − (“−” indicates less than 50% inhibition at 10 μM) | − (“−” indicates less than 50% inhibition at 10 μM) | − (“−” indicates less than 50% inhibition at 10 μM) | –
5 | CO[C@H]1[C@H](O)[C@@H](COCc2cccc(O)c2)OC(OCc2ccc3ccccc3c2)[C@@H]1NC(=O)CCNC(=N)N (stereo partly drawn) [compound 151] | – | – | – | – | – | – | – | – | – | – | – | – | – | – | – | – | – | – | – | – | A2 radioligand binding, percentage inhibition (Human κ-Opioid (KOP)): − (“−” indicates less than 50% inhibition at 10 μM); A7 radioligand binding, percentage inhibition (Human μ-opioid (MOP)): + (“+” indicates greater than 50% inhibition at 10 μM); A8 radioligand binding, percentage inhibition (Human neurokinin (NK1)): − (“−” indicates less than 50% inhibition at 10 μM); A9 radioligand binding, percentage inhibition [1]: − (“−” indicates less than 50% inhibition at 10 μM); A11 radioligand binding, percentage inhibition (Mouse urotensin (mUR2)): − (“−” indicates less than 50% inhibition at 10 μM); A1 radioligand binding, percentage inhibition (Human δ-opioid (DOP)): − (“−” indicates less than 50% inhibition at 10 μM); A6 radioligand binding, percentage inhibition ([2]; [125I]-S36057): − (“−” indicates less than 50% inhibition at 10 μM); A10 radioligand binding, percentage inhibition (Human opioid (ORL1)): − (“−” indicates less than 50% inhibition at 10 μM); A4 radioligand binding, percentage inhibition (Human Melanocortin (MC4)): − (“−” indicates less than 50% inhibition at 10 μM); A5 radioligand binding, percentage inhibition (Human melanocortin (MC5)): − (“−” indicates less than 50% inhibition at 10 μM); A3 radioligand binding, percentage inhibition (Human Melanocortin (MC3)): − (“−” indicates less than 50% inhibition at 10 μM)
6 | COCC1OC(OCc2ccc(Cl)cc2)C(NC(=O)CCNC(=N)N)C(OCc2ccc3ccccc3c2)C1O (stereo not drawn) [compound 211] | + (“+” indicates greater than 50% inhibition at 10 μM) | + (“+” indicates greater than 50% inhibition at 10 μM) | + (“+” indicates greater than 50% inhibition at 10 μM) | − (“−” indicates less than 50% inhibition at 10 μM) | − (“−” indicates less than 50% inhibition at 10 μM) | − (“−” indicates less than 50% inhibition at 10 μM) | + (“+” indicates greater than 50% inhibition at 10 μM) | − (“−” indicates less than 50% inhibition at 10 μM) | + (“+” indicates greater than 50% inhibition at 10 μM) | – | – | – | – | – | – | – | – | – | – | – | A5: inhibition of radioligand binding (Human melanocortin (MC5)): + (“+” indicates greater than 50% inhibition at 10 μM); A3: inhibition of radioligand binding (Human Melanocortin (MC3)): − (“−” indicates less than 50% inhibition at 10 μM)
